Assays:
[1] = molecular target: T1, GST-JAK2 (Homo sapiens, UniProt O60674); experiment: JAK2 kinase assay of the general description (alternative method, flash plate); assay type: biochemical; conditions: 1.0 μM ATP, read-out: IC50 with test in general description (named “alternative method to that given in the examples”) (“flash plate”)
T1 construct: the amino acid domain ASP751-VAL1129 of the JAK2 protein
Procedure: Baculovirus including the amino acid domain ASP751-VAL1129 of the JAK2 protein is obtainable by ProQinase, Freiburg, Germany. The virus is scaled up as following: Virus containing media is collected from the transfected cell culture and used for infection to increase its titer. Virus containing media obtained after two rounds of infection is used for large-scale protein expression. For large-scale protein expression 100 cm^2 round tissue culture plates are seeded with 5×10^7 cells/plate and infected with 1 mL of virus-containing media (approx. 5 MOIs). After 3 days the cells are scraped off the plate and centrifuged at 500 rpm for 5 min. Cell pellets from 10-20, 100 cm^2 plates, are re-suspended in 50 mL of ice-cold lysis buffer (25 mMTris-HCl, pH7.5, 2 mMEDTA, 1% NP-40, 1 mM DTT, 1 mMP MSF). The cells are stirred on ice for 15 min and then centrifuged at 5000 rpms for 20 min. The protein is purified by loading the centrifuged cell lysate onto a 2 mL glutathione-sepharose column and washed three times with 10 mL of 25 mM Tris-HCl, pH 7.5, 2 mM EDTA, 1 mM DTT, 200 mM NaCl. The GST-tagged proteins are then eluted by 10 applications (1 mL each) of 25 mM Tris-HCl, pH 7.5, 10 mM reduced-glutathione, 100 mM NaCl, 1 mM DTT, 10% Glycerol and stored at −70° C.
Cancer Cell; 5: 231-239]. The test compound is dissolved in DMSO (10 mM) and stored at −20° C. Serial dilutions are freshly made in DMSO and are […] concentrated than test solutions (“pre-dilution plates”). They are further diluted with pure water to yield “master plates” containing 3 times concentrated test solutions in 3% DMSO. The final volume of the assay is 30 μL containing 10 μL of test solution (1% DMSO), 10 μL assay mix including the assay components described by Garcia-Echeverria (2004) and in the following section as well as 10 μL enzyme. The pipetting steps can be programmed to be performed either on the MultiPROBE Iix, MultiPROBE IILx or HamiltonSTAR robots in the 96 well format.
The protein kinase assays are carried as described in details by Garcia-Echeverria (see above). The assay for JAK2 is carried out in 96-well plates at ambient temperature for 10 min (filter-biding method) or 30 min (flash plates) in a finial volume of 30 μL including the following components: 300 ng of GST-JAK2, 20 mM Tris-HCl, pH 7.5, 1.0 mM MnCl2, 10 mM MgCl2, 1 mM DTT, 3 μg/mL poly(Glu, Tyr) 4:1, 1% DMSO and 1.0 μM ATP (γ-[^33P]-ATP 0.1 μCi); The assays are terminated by the addition of 20 μl of 125 mM EDTA. The capturing of the phosphorylated peptides by the filter-binding method is performed as following: 40 μL of the reaction mixture are transferred onto Immobilon-PVDF membranes previously soaked for 5 min with methanol, rinsed with water, then soaked for 5 min with 0.5% H3PO4 and mounted on vacuum manifold with disconnected vacuum source. After spotting all samples, vacuum is connected and each well rinsed with 200 μl 0.5% H3PO4. Free membranes are removed and washed 4× on a shaker with 1.0% H3PO4, once with ethanol. Membranes are counted after drying at ambient temperature, mounting in Packard TopCount 96-well frame, and addition of 10 μl/well of Microscint. The plates are eventually sealed and counted in a microplate scintillation counter (TopCount NXT, TopCount NXT HTS, PerkinElmer, Brussels, Belgium).
The assays for the flash plate method is carried out in a total volume of 30 μL at RT in conventional 96-well flash plates. The reaction is stopped after 30 min by the addition of 20 μL of 125 mM EDTA The assay plates are then washed three times with PBS and dried at room temperature. The plates are sealed and counted in a microplate scintillation counter (TopCount NXT, TopCount NXT HTS). IC50 values are calculated by linear regression analysis of the percentage inhibition of the compound either in duplicate, at four concentrations (usually 0.01, 0.1, 1 and 10 μM) or as 8 single point IC50 starting at 10 μM following by 1:3 dilutions.

[2] = molecular target: T2, GST-JAK2(808-1132) (Homo sapiens, UniProt O60674); experiment: EPK JAK/TYK-kinase family profiling assay (Caliper mobility shift), JAK2; assay type: biochemical; conditions: Caliper mobility shift assay of Example 187, 20 μM ATP, read-out: IC50 with Test in present Example
T2 construct: GST-JAK2(808-1132) is purchased from Invitrogen; purchased Invitrogen (Carlsbad, USA) #4288
In short: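 Caliper mobility-shift assay with the GST-tagged kinase domain and a fluorescently labeled peptide substrate plus ATP, run 60 min at 30° C and then stopped with EDTA buffer. Turnover was taken as the substrate/product ratio. Compounds were tested at eight final concentrations from 10 to 0.003 μM.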

T1 sequence (O60674 751-1129): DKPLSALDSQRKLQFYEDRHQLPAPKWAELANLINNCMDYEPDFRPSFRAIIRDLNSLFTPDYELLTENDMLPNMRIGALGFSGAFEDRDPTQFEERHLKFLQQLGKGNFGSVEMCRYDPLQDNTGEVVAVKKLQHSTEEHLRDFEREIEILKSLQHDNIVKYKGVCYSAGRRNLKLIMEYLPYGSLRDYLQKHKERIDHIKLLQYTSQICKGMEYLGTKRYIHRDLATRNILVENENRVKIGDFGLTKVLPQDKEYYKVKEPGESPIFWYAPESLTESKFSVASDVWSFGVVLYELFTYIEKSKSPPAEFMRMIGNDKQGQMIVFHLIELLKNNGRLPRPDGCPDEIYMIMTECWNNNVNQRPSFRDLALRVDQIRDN
T2 sequence (O60674 808-1132): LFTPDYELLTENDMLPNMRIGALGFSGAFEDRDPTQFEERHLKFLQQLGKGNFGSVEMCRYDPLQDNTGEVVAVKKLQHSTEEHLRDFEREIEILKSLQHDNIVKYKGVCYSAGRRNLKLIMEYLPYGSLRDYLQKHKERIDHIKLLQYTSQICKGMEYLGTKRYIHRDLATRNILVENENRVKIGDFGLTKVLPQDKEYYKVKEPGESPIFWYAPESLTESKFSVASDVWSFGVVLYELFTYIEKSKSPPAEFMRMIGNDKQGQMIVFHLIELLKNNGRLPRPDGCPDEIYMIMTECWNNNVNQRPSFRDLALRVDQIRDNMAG

IC50 [1] [nM]	IC50 [2] [nM]	Compound
350		COc1cc(Nc2nc3cccc(-c4ccc(N(C)C)cc4)c3o2)cc(OC)c1OC [Example 54, [7-(4-Dimethylamino-phenyl)-benzooxazol-2-yl]-(3,4,5-trimethoxy-phenyl)-amine]
610		COc1cc(Nc2nc3cccc(-c4ccccc4N)c3o2)cc(OC)c1OC [Example 14, [7-(2-Amino-phenyl)-benzooxazol-2-yl]-(3,4,5-trimethoxy-phenyl)-amine]
930		COc1cc(Nc2nc3cccc(-c4ccccc4C)c3o2)cc(OC)c1OC [Example 44, (7-o-Tolyl-benzooxazol-2-yl)-(3,4,5-trimethoxy-phenyl)-amine]
120		COc1cc(Nc2nc3cccc(-c4ccc5[nH]cnc5c4)c3o2)cc(OC)c1OC [Example 35, [7-(1H-Benzoimidazol-5-yl)-benzooxazol-2-yl]-(3,4,5-trimethoxy-phenyl)-amine]
250	66	COc1cc(Nc2nc3cccc(-c4ccc(CN)cc4)c3o2)cc(OC)c1OC [Example 29, [7-(4-Aminomethyl-phenyl)-benzooxazol-2-yl]-(3,4,5-trimethoxy-phenyl)-amine]
593		COc1cc(Nc2nc3cccc(-c4cccc(C(N)=O)c4)c3o2)cc(OC)c1OC [Example 47, 3-[2-(3,4,5-Trimethoxy-phenylamino)-benzooxazol-7-yl]-benzamide]
520		COc1cc(Nc2nc3cccc(-c4cccc(S(C)(=O)=O)c4)c3o2)cc(OC)c1OC [Example 49, [7-(3-Methanesulfonyl-phenyl)-benzooxazol-2-yl]-(3,4,5-trimethoxy-phenyl)-amine]
178		COc1cc(Nc2nc3cccc(-c4cccc(O)c4)c3o2)cc(OC)c1OC [Example 6, [7-(3-Hydroxy-phenyl)-benzooxazol-2-yl]-(3,4,5-trimethoxy-phenyl)-amine]
150		COc1cc(Nc2nc3cccc(-c4ccc(Cl)c(N)c4)c3o2)cc(OC)c1OC [Example 52, [7-(3-Amino-4-chloro-phenyl)-benzooxazol-2-yl]-(3,4,5-trimethoxy-phenyl)-amine]
700		COc1cc(Nc2nc3cccc(-c4cccc([N+](=O)[O-])c4)c3o2)cc(OC)c1OC [Example 48, [7-(3-Nitro-phenyl)-benzooxazol-2-yl]-(3,4,5-trimethoxy-phenyl)-amine]
420		COc1cc(Nc2nc3cccc(-c4cccc(NS(C)(=O)=O)c4)c3o2)cc(OC)c1OC [Example 55, N-{3-[2-(3,4,5-Trimethoxy-phenylamino)-benzooxazol-7-yl]-phenyl}-methanesulfonamide]
350		COc1cc(Nc2nc3cccc(-c4ccccn4)c3o2)cc(OC)c1OC [Example 46, (7-Pyridin-2-yl-benzooxazol-2-yl)-(3,4,5-trimethoxy-phenyl)-amine]
610		CNS(=O)(=O)c1cccc(-c2cccc3nc(Nc4cc(OC)c(OC)c(OC)c4)oc23)c1 [Example 50, N-Methyl-3-[2-(3,4,5-trimethoxy-phenylamino)-benzooxazol-7-yl]-benzene-sulfonamide]
950		COc1cc(Nc2nc3cccc(-c4cccc(C#N)c4)c3o2)cc(OC)c1OC [Example 45, 3-[2-(3,4,5-Trimethoxy-phenylamino)-benzooxazol-7-yl]-benzonitrile]
557		COc1ccc(-c2cccc3nc(Nc4cc(OC)c(OC)c(OC)c4)oc23)cc1N [Example 53, [7-(3-Amino-4-methoxy-phenyl)-benzooxazol-2-yl]-(3,4,5-trimethoxy-phenyl)-amine]

Second part, the molecule before the results:

Compound	IC50 [1] [nM]	IC50 [2] [nM]
COc1cc(Nc2nc3cccc(-c4ccc(C(=O)N5CCN(C)CC5)cc4)c3o2)cc(OC)c1OC [Example 142, (4-Methyl-piperazin-1-yl)-{4-[2-(3,4,5-trimethoxy-phenylamino)-benzooxazol-7-yl]-phenyl}-methanone]	700	58.5
COc1ccc(-c2cccc3nc(Nc4cc(OC)c(OC)c(OC)c4)oc23)cc1[N+](=O)[O-] [Example 51, [7-(4-Methoxy-3-nitro-phenyl)-benzooxazol-2-yl]-(3,4,5-trimethoxy-phenyl)-amine]	450	
COc1cc(Nc2nc3ccnc(-c4ccc(CNS(C)(=O)=O)cc4)c3o2)cc(OC)c1OC [Example 62, N-{4-[2-(3,4,5-Trimethoxy-phenylamino)-oxazolo[5,4-c]pyridin-4-yl]-benzyl}-methanesulfonamide]	230	16
CN(C)CCNC(=O)c1ccc(Nc2nc3cccc(-c4ccc(S(N)(=O)=O)cc4)c3o2)cc1 [Example 57, N-(2-Dimethylamino-ethyl)-4-[7-(4-sulfamoyl-phenyl)-benzooxazol-2-ylamino]-benzamide]	150	37
COc1cc(Nc2nc3cccc(-c4ccc(NS(C)(=O)=O)cc4)c3o2)cc(OC)c1OC [Example 26, N-{4-[2-(3,4,5-Trimethoxy-phenylamino)-benzooxazol-7-yl]-phenyl}-methanesulfonamide]	52	
COc1cc(Nc2nc3cccc(-c4ccc(C(=O)N5CCOCC5)cc4)c3o2)cc(OC)c1OC [Example 141, Morpholin-4-yl-{4-[2-(3,4,5-trimethoxy-phenylamino)-benzooxazol-7-yl]-phenyl}-methanone]	220	8.1
CNS(=O)(=O)c1ccc(-c2cccc3nc(Nc4ccc(OC)c(OC)c4)oc23)cc1 [Example 59, 4-[2-(3,4-Dimethoxy-phenylamino)-benzooxazol-7-yl]-N-methyl-benzenesulfonamide]	41	
CNC(=O)c1cc(-c2cccc3nc(Nc4cc(OC)c(OC)c(OC)c4)oc23)cs1 [Example 34, 4-[2-(3,4,5-Trimethoxy-phenylamino)-benzooxazol-7-yl]-thiophene-2-carboxylic acid methylamide]	540	
COc1cc(Nc2nc3cccc(-c4ccc(NC(C)=O)cc4)c3o2)cc(OC)c1OC [Example 27, N-{4-[2-(3,4,5-Trimethoxy-phenylamino)-benzooxazol-7-yl]-phenyl}-acetamide]	200	
CNC(=O)Cc1ccc(-c2cccc3nc(Nc4cc(OC)c(OC)c(OC)c4)oc23)cc1 [Example 61, N-Methyl-2-{4-[2-(3,4,5-trimethoxy-phenylamino)-benzooxazol-7-yl]-phenyl}-acetamide]	87	
Nc1cccc(-c2cccc3nc(Nc4ccc(N5CCOCC5)cc4)oc23)c1 [Example 43, [7-(3-Amino-phenyl)-benzooxazol-2-yl]-(4-morpholin-4-yl-phenyl)-amine]	1900	
COc1cc(Nc2nc3ccnc(-c4ccc(N)cc4)c3o2)cc(OC)c1OC [Example 36, [4-(4-Amino-phenyl)-oxazolo[5,4-c]pyridin-2-yl]-(3,4,5-trimethoxy-phenyl)-amine]	120	

— US8629168B2, “Benzoxazoles and oxazolopyridines being useful as janus kinases inhibitors” (priority 2006, dated 2014)
